How the values were obtained:
[1] = target: Human LATS2 catalytic domain (Homo sapiens (Human), UniProt Q9NRM7); assay: LATS2 High ATP HTRF Assay; type: biochemical; conditions: no asterisk: LATS2 High ATP HTRF Assay, 5000 μM ATP, 0.05 nM LATS2
Method in brief: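 Phosphorylation of 0.5 μM STK S1 peptide at high ATP (5000 μM), 2 h at room temperature, by 0.05 nM LATS2 kinase domain/Mob1b complex after 10 min compound pre-incubation. Ki derived from HTRF-based IC50 (4-parameter logistic) by Cheng-Prusoff, ATP Km 105 μM.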

[2] = tested on: TAZ nuclear translocation in SW1990 cells; assay: TAZ Nuclear Translocation Assay; type: cell-based; conditions: Homo sapiens, 4 hours
Description: The SW1990 cells (ATCC, CRL2172) were seeded at 5000 cells/well by adding 30 μL/well of cells in RPMI1640, 10% FBS, 2 mM glutamine culture media to a 384-well plate (Greiner 781091). The cells were incubated overnight at 37° C. Next day, test compounds were directly added to the cells using the Echo Liquid Handler (Labcyte), incubate at 37° C. for 4 hours. The cells were fixed with 4% paraformaldehyde and incubate for 20 minutes at room temperature. After washing three times with 100 μL PBS, 0.5% Triton X-100 was added to permeabilize the cells, incubate at room temperature for 5 minutes, following by washing the cells three times with PBS. 3% BSA was added to the cells, incubate for one hour at room temperature, following by washing three times with PBS. 50 μL of 1:750 diluted rabbit Anti-TAZ (Cell signaling D316D) in 3% BSA was added to the cells, incubate at 4° C. overnight. Next day, after washing the cells three times with PBS, 50 μL of 1:1250 diluted donkey anti-Rabbit, Alexa Fluor 488 (Invitrogen A21206) and 1:6250 diluted Hoechst 33342 (Molecular Probes H-21492) in 3% BSA was added to the cells, incubate at room temperature for one hour. The cells were washed three times with PBS, then image with the CellInsight CX7 High-Content Imager. The ratio of nuclear mean fluorescence intensity and cytoplasmic ring region mean fluorescence intensity was calculated. The % inhibition was normalized using DMSO as 0% inhibition and an inhibitor control as 100% inhibition. The EC50 values were calculated by fitting the % inhibition with a nonlinear four-parameter logistical equation.

Human LATS2 catalytic domain, sequence (Q9NRM7 553-1088): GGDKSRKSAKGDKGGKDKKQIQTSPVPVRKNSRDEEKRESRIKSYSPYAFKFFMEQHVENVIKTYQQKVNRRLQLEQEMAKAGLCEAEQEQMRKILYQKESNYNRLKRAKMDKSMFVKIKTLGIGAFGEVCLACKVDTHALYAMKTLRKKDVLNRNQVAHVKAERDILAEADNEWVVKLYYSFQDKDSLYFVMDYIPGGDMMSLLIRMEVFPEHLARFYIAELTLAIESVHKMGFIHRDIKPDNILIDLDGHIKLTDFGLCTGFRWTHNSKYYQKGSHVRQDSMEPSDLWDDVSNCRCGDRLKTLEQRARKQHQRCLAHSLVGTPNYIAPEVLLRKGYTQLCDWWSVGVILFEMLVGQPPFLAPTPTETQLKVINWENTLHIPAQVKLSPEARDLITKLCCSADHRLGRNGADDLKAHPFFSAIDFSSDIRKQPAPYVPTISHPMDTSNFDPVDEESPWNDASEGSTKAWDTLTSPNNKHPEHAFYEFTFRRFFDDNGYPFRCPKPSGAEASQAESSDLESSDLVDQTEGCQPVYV
Human LATS2 catalytic domain, sequence (Q7L9L4 whole entry partner, the tested form may be a part): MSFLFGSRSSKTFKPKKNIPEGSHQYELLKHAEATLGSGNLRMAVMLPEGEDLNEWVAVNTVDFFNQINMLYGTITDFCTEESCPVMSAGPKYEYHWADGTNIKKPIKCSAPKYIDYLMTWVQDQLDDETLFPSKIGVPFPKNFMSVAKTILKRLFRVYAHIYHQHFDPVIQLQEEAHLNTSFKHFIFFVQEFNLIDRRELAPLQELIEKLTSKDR

Structure (SMILES)	Ki [1]	EC50 [2]
Clc1[nH]ncc1-c1nc(N2CCC3(CCNC3)CC2)c2ccncc2n1 [Compound 153, 2-(5-chloro-1H-pyrazol-4-yl)-4-(2,8-diazaspiro[4.5]decan-8-yl)pyrido[3,4-d]pyrimidine]	0.11 nM	> 10000 nM
c1cc2c(N3CCC4(CCNC4)CC3)nc(-c3ccnc4[nH]ccc34)nc2cn1 [Compound 156, 2-(1H-pyrrolo[2,3-b]pyridin-4-yl)-4-(2,8-diazaspiro[4.5]decan-8-yl)pyrido[3,4-d]pyrimidine]	0.7 nM	4600 nM
Cc1cc2c(N3CCC4(CCNC4)CC3)nc(-c3c[nH]nc3C)nc2cn1 [Compound 160, 6-methyl-2-(3-methyl-1H-pyrazol-4-yl)-4-(2,8-diazaspiro[4.5]decan-8-yl)pyrido[3,4-d]pyrimidine]	2.02 nM	> 10000 nM
Cc1n[nH]cc1-c1nc(N2CCC3(CCNC3)CC2)c2ccnc(C)c2n1 [Compound 163, 8-methyl-2-(3-methyl-1H-pyrazol-4-yl)-4-(2,8-diazaspiro[4.5]decan-8-yl)pyrido[3,4-d]pyrimidine]	2.88 nM	> 10000 nM
CC1NCCC12CCN(c1nc(-c3ccncc3)nc3cnccc13)CC2 (stereo not drawn) [Compound 166, 4-(1-methyl-2,8-diazaspiro[4.5]decan-8-yl)-2-(pyridin-4-yl)pyrido[3,4-d]pyrimidine]	2.67 nM	1800 nM
CC1CC2(CCN(c3nc(-c4ccncc4)nc4cnccc34)CC2)CN1C (stereo not drawn) [Compound 168, 4-(2,3-dimethyl-2,8-diazaspiro[4.5]decan-8-yl)-2-(pyridin-4-yl)pyrido[3,4-d]pyrimidine]	1.62 nM	830 nM
COC(=O)C1CC2(CCN(c3nc(-c4ccncc4)nc4cnccc34)CC2)CN1 (stereo not drawn) [Compound 171, methyl 8-(2-(pyridin-4-yl)pyrido[3,4-d]pyrimidin-4-yl)-2,8-diazaspiro[4.5]decane-3-carboxylate]	1.95 nM	8400 nM
CNC(=O)C1CC2(CCN(c3nc(-c4ccncc4)nc4cnccc34)CC2)CN1 (stereo not drawn) [Compound 172, N-methyl-8-(2-(pyridin-4-yl)pyrido[3,4-d]pyrimidin-4-yl)-2,8-diazaspiro[4.5]decane-3-carboxamide]	0.64 nM	6500 nM
Fc1cnccc1-c1nc(N2CCC3(CCNC3)CC2)c2ccncc2n1 [Compound 182, 2-(3-fluoropyridin-4-yl)-4-(2,8-diazaspiro[4.5]decan-8-yl)pyrido[3,4-d]pyrimidine]	2.26 nM	2700 nM
Cc1[nH]ncc1-c1nc(N2CCC3(CCNC3)CC2)c2c(F)cncc2n1 [Compound 186, 5-fluoro-2-(5-methyl-1H-pyrazol-4-yl)-4-(2,8-diazaspiro[4.5]decan-8-yl)pyrido[3,4-d]pyrimidine]	2.26 nM	> 10000 nM
CN1CCC2(CCN(c3nc(-c4ccncc4)nc4cnc(Cn5cc(Cl)cn5)cc34)CC2)C1 [Compound 189, 6-((4-chloro-1H-pyrazol-1-yl)methyl)-4-(2-methyl-2,8-diazaspiro[4.5]decan-8-yl)-2-(pyridin-4-yl)pyrido[3,4-d]pyrimidine]	0.76 nM	540 nM
Cc1n[nH]cc1-c1nc(N2CCC3(CCN(C)C3)CC2)c2cc(Cn3cc(Cl)cn3)ncc2n1 [Compound 190, 6-((4-chloro-1H-pyrazol-1-yl)methyl)-2-(3-methyl-1H-pyrazol-4-yl)-4-(2-methyl-2,8-diazaspiro[4.5]decan-8-yl)pyrido[3,4-d]pyrimidine]	0.026 nM	110 nM
OCC1CC2(CCN(c3nc(-c4ccncc4)nc4cnccc34)CC2)CN1 (stereo not drawn) [Compound 196, (8-(2-(pyridin-4-yl)pyrido[3,4-d]pyrimidin-4-yl)-2,8-diazaspiro[4.5]decan-3-yl)methanol]	0.057 nM	970 nM
COCc1cncc2nc(-c3ccncc3)nc(N3CCC4(CCNC4)CC3)c12 [Compound 243, 5-(Methoxymethyl)-2-(pyridin-4-yl)-4-(2,8-diazaspiro[4.5]decan-8-yl)pyrido[3,4-d]pyrimidine]	1.9 nM	3900 nM
CC(C)(O)C#Cc1nccc2c(N3CCC4(CCNC4)CC3)nc(-c3ccncc3)nc12 [Compound 245, 2-methyl-4-(2-(pyridin-4-yl)-4-(2,8-diazaspiro[4.5]decan-8-yl)pyrido[3,4-d]pyrimidin-8-yl)but-3-yn-2-ol]	0.039 nM	4800 nM
FC(F)(F)c1cncc2nc(-c3ccncc3)nc(N3CCC4(CCNC4)CC3)c12 [Compound 246, 2-(pyridin-4-yl)-4-(2,8-diazaspiro[4.5]decan-8-yl)-5-(trifluoromethyl)pyrido[3,4-d]pyrimidine]	3.5 nM	3100 nM
CN1CCC2(CCN(c3nc(-c4ccncc4)nc4c(C#CC(C)(C)O)nccc34)CC2)C1 [Compound 247, 2-methyl-4-(4-(2-methyl-2,8-diazaspiro[4.5]decan-8-yl)-2-(pyridin-4-yl)pyrido[3,4-d]pyrimidin-8-yl)but-3-yn-2-ol]	0.039 nM	310 nM
Oc1cncc2nc(-c3ccncc3)nc(N3CCC4(CCNC4)CC3)c12 [Compound 249, 2-(Pyridin-4-yl)-4-(2,8-diazaspiro[4.5]decan-8-yl)pyrido[3,4-d]pyrimidin-5-ol]	0.27 nM	> 10000 nM
[O-][n+]1ccc(-c2nc(N3CCC4(CCNC4)CC3)c3ccncc3n2)cc1 [Compound 251, 4-(4-(2,8-diazaspiro[4.5]decan-8-yl)pyrido[3,4-d]pyrimidin-2-yl)pyridine 1-oxide]	3.5 nM	> 10000 nM
COc1cncc2nc(-c3ccncc3)nc(N3CCC4(CCN(CC5(O)CCC5)C4)CC3)c12 [Compound 253, 1-((8-(5-methoxy-2-(pyridin-4-yl)pyrido[3,4-d]pyrimidin-4-yl)-2,8-diazaspiro[4.5]decan-2-yl)methyl)cyclobutan-1-ol]	0.28 nM	120 nM
C#CCCN1CCC2(CCN(c3nc(-c4ccncc4)nc4cnccc34)CC2)C1 [Compound 256, 4-(2-(but-3-yn-1-yl)-2,8-diazaspiro[4.5]decan-8-yl)-2-(pyridin-4-yl)pyrido[3,4-d]pyrimidine]	0.19 nM	470 nM

The remaining compounds from weak to strong by Ki [1], led by results:

Ki [1]	EC50 [2]	Structure (SMILES)
5.55 nM	1900 nM	Clc1cncc2nc(-c3ccncc3)nc(N3CCC4(CCNC4)CC3)c12 [Compound 161, 5-chloro-2-(pyridin-4-yl)-4-(2,8-diazaspiro[4.5]decan-8-yl)pyrido[3,4-d]pyrimidine]
1.54 nM	4700 nM	Cc1cncc2nc(-c3ccncc3)nc(N3CCC4(CCNC4)CC3)c12 [Compound 162, 5-methyl-2-(pyridin-4-yl)-4-(2,8-diazaspiro[4.5]decan-8-yl)pyrido[3,4-d]pyrimidine]
1.44 nM	> 10000 nM	OC1CNCC12CCN(c1nc(-c3ccncc3)nc3cnccc13)CC2 (stereo not drawn) [Compound 187, 8-(2-(pyridin-4-yl)pyrido[3,4-d]pyrimidin-4-yl)-2,8-diazaspiro[4.5]decan-4-ol]
1.4 nM	> 10000 nM	Cc1n[nH]c(C)c1-c1nc(N2CCC3(CCNC3)CC2)c2ccncc2n1 [Compound 241, 2-(3,5-Dimethyl-1H-pyrazol-4-yl)-4-(2,8-diazaspiro[4.5]decan-8-yl)pyrido[3,4-d]pyrimidine]
0.76 nM	2800 nM	COCc1nccc2c(N3CCC4(CCNC4)CC3)nc(-c3ccncc3)nc12 [Compound 242, 8-(methoxymethyl)-2-(pyridin-4-yl)-4-(2,8-diazaspiro[4.5]decan-8-yl)pyrido[3,4-d]pyrimidine]
0.034 nM	140 nM	COc1cncc2nc(-c3ccncc3)nc(N3CCC4(CCN(CC5COC5)C4)CC3)c12 [Compound 255, 5-Methoxy-4-(2-(oxetan-3-ylmethyl)-2,8-diazaspiro[4.5]decan-8-yl)-2-(pyridin-4-yl)pyrido[3,4-d]pyrimidine]
0.033 nM	100 nM	COc1cncc2nc(-c3ccncc3)nc(N3CCC4(CCN(CC(C)(C)O)C4)CC3)c12 [Compound 250, 1-(8-(5-methoxy-2-(pyridin-4-yl)pyrido[3,4-d]pyrimidin-4-yl)-2,8-diazaspiro[4.5]decan-2-yl)-2-methylpropan-2-ol]
0.02 nM	110 nM	CC(C)Oc1cncc2nc(-c3ccncc3)nc(N3CCC4(CCNC4)CC3)c12 [Compound 248, 5-isopropoxy-2-(pyridin-4-yl)-4-(2,8-diazaspiro[4.5]decan-8-yl)pyrido[3,4-d]pyrimidine]
0.018 nM	100 nM	C=CCOc1cncc2nc(-c3ccncc3)nc(N3CCC4(CCNC4)CC3)c12 [Compound 254, 5-(allyloxy)-2-(pyridin-4-yl)-4-(2,8-diazaspiro[4.5]decan-8-yl)pyrido[3,4-d]pyrimidine]

— patent US20240174696A1, “2,8-DIAZASPIRO[4.5]DECANE COMPOUNDS” (Genentech, Inc., priority 2021, published 2024)
